Among the data in PubChem BioAssay AID1259407 (Chemical Carcinogenesis Research Information System (CCRIS), 2018) are mutagenic call values, retold here.

Molecules are shown by their SMILES. The source made the active and inactive calls. No rule for the calls is given here.

The data set concerns CCRIS mutagenicity, Ames/micronucleus/aberration tests. The data set can be described thus: CCRIS mutagenicity studies.
Where [1] appears, read: Test System: AMES SALMONELLA TYPHIMURIUM, Strain/Indicator: TA98, Metabolic Activation: NONE, Method: PREINCUBATION
The mark [2] stands for this setting: Test System: AMES SALMONELLA TYPHIMURIUM, Strain/Indicator: TA100, Metabolic Activation: NONE, Method: PREINCUBATION
Setting [3] is: Test System: AMES SALMONELLA TYPHIMURIUM, Strain/Indicator: TA1535, Metabolic Activation: NONE, Method: PREINCUBATION
The mark [4] stands for this setting: Test System: AMES SALMONELLA TYPHIMURIUM, Strain/Indicator: TA1537, Metabolic Activation: NONE, Method: PREINCUBATION

Consider `CC(C)=CC1C(C(=O)OCc2cccc(Oc3ccccc3)c2)C1(C)C` (stereo unspecified), for which the mutagenic call is “inactive; negative” (Test System: AMES SALMONELLA TYPHIMURIUM, Strain/Indicator: TA98); “inactive; negative” (Test System: AMES SALMONELLA TYPHIMURIUM, Strain/Indicator: TA98, Metabolic Activation: NONE); “inactive; negative” (Test System: AMES SALMONELLA TYPHIMURIUM, Strain/Indicator: TA98, Metabolic Activation: NONE, Method: STANDARD PLATE); “inactive; negative” (Test System: AMES SALMONELLA TYPHIMURIUM, Strain/Indicator: TA98, Metabolic Activation: RAT, LIVER, S-9, AROCLOR 1254, Method: STANDARD PLATE); “active; positive” (Test System: AMES SALMONELLA TYPHIMURIUM, Strain/Indicator: TA100); “active; positive” (Test System: AMES SALMONELLA TYPHIMURIUM, Strain/Indicator: TA100, Metabolic Activation: NONE). In addition, the mutagenic call was “inactive; negative” (Test System: AMES SALMONELLA TYPHIMURIUM, Strain/Indicator: TA100, Metabolic Activation: NONE, Method: STANDARD PLATE); “inactive; negative” (Test System: AMES SALMONELLA TYPHIMURIUM, Strain/Indicator: TA100, Metabolic Activation: RAT, LIVER, S-9, AROCLOR 1254, Method: STANDARD PLATE); “inactive; negative” (Test System: AMES SALMONELLA TYPHIMURIUM, Strain/Indicator: TA1535, Metabolic Activation: NONE, Method: STANDARD PLATE); “inactive; negative” (Test System: AMES SALMONELLA TYPHIMURIUM, Strain/Indicator: TA1535, Metabolic Activation: RAT, LIVER, S-9, AROCLOR 1254, Method: STANDARD PLATE); “inactive; negative” (Test System: AMES SALMONELLA TYPHIMURIUM, Strain/Indicator: TA1537, Metabolic Activation: NONE, Method: STANDARD PLATE); “inactive; negative” (Test System: AMES SALMONELLA TYPHIMURIUM, Strain/Indicator: TA1537, Metabolic Activation: RAT, LIVER, S-9, AROCLOR 1254, Method: STANDARD PLATE). Moreover, the mutagenic call (Test System: E. COLI, Strain/Indicator: WP2, Metabolic Activation: NONE, Method: STANDARD PLATE) is “inactive; negative” and the mutagenic call (Test System: E. COLI, Strain/Indicator: WP2, Metabolic Activation: RAT, LIVER, S-9, AROCLOR 1254, Method: STANDARD PLATE) was “inactive; negative”.
`N#Cc1ccc2nc(N)[nH]c2c1`: the mutagenic call reads like this: (Test System: AMES SALMONELLA TYPHIMURIUM, Strain/Indicator: TA98, Metabolic Activation: RAT, LIVER, S-9, AROCLOR 1254, Method: PREINCUBATION) “active; positive”; (Test System: AMES SALMONELLA TYPHIMURIUM, Strain/Indicator: TA100, Metabolic Activation: RAT, LIVER, S-9, AROCLOR 1254, Method: PREINCUBATION) “active; positive”.
Regarding `CC(C)(C)C(=O)C(Oc1ccc(Cl)cc1)n1ccnc1` (stereo unspecified), the mutagenic call reads like this: under setting [1], “inactive; negative”; (Test System: AMES SALMONELLA TYPHIMURIUM, Strain/Indicator: TA98, Metabolic Activation: RAT, LIVER, S-9, PCB, Method: PREINCUBATION) “inactive; negative”; under setting [2], “inactive; negative”; (Test System: AMES SALMONELLA TYPHIMURIUM, Strain/Indicator: TA100, Metabolic Activation: RAT, LIVER, S-9, PCB, Method: PREINCUBATION) “inactive; negative”; under setting [3], “inactive; negative”; (Test System: AMES SALMONELLA TYPHIMURIUM, Strain/Indicator: TA1535, Metabolic Activation: RAT, LIVER, S-9, PCB, Method: PREINCUBATION) “inactive; negative”. The mutagenic call reads like this: under setting [4], “inactive; negative”; (Test System: AMES SALMONELLA TYPHIMURIUM, Strain/Indicator: TA1537, Metabolic Activation: RAT, LIVER, S-9, PCB, Method: PREINCUBATION) “inactive; negative”; (Test System: AMES SALMONELLA TYPHIMURIUM, Strain/Indicator: TA1538, Metabolic Activation: NONE, Method: PREINCUBATION) “inactive; negative”; (Test System: AMES SALMONELLA TYPHIMURIUM, Strain/Indicator: TA1538, Metabolic Activation: RAT, LIVER, S-9, PCB, Method: PREINCUBATION) “inactive; negative”; (Test System: Ames Salmonella typhimurium, Strain/Indicator: TA98, Metabolic Activation: None, Method: Plate incorporation) “inactive; negative”; (Test System: Ames Salmonella typhimurium, Strain/Indicator: TA98, Metabolic Activation: None, Method: Preincubation) “inactive; negative”. Besides, the mutagenic call is, setting by setting: (Test System: Ames Salmonella typhimurium, Strain/Indicator: TA98, Metabolic Activation: Rat, Liver, S-9, Aroclor, Method: Plate incorporation) “inactive; negative”; (Test System: Ames Salmonella typhimurium, Strain/Indicator: TA98, Metabolic Activation: Rat, Liver, S-9, Aroclor, Method: Preincubation) “inactive; negative”; (Test System: Ames Salmonella typhimurium, Strain/Indicator: TA100, Metabolic Activation: None, Method: Plate incorporation) “inactive; negative”; (Test System: Ames Salmonella typhimurium, Strain/Indicator: TA100, Metabolic Activation: None, Method: Preincubation) “inactive; negative”; (Test System: Ames Salmonella typhimurium, Strain/Indicator: TA100, Metabolic Activation: Rat, Liver, S-9, Aroclor, Method: Plate incorporation) “inactive; negative”; (Test System: Ames Salmonella typhimurium, Strain/Indicator: TA100, Metabolic Activation: Rat, Liver, S-9, Aroclor, Method: Preincubation) “inactive; negative”. Besides, the mutagenic call by setting is: (Test System: Ames Salmonella typhimurium, Strain/Indicator: TA1535, Metabolic Activation: None, Method: Plate incorporation) “inactive; negative”; (Test System: Ames Salmonella typhimurium, Strain/Indicator: TA1535, Metabolic Activation: None, Method: Preincubation) “inactive; negative”; (Test System: Ames Salmonella typhimurium, Strain/Indicator: TA1535, Metabolic Activation: Rat, Liver, S-9, Aroclor, Method: Plate incorporation) “inactive; negative”; (Test System: Ames Salmonella typhimurium, Strain/Indicator: TA1535, Metabolic Activation: Rat, Liver, S-9, Aroclor, Method: Preincubation) “inactive; negative”; (Test System: Ames Salmonella typhimurium, Strain/Indicator: TA1537, Metabolic Activation: None, Method: Plate incorporation) “inactive; negative”; (Test System: Ames Salmonella typhimurium, Strain/Indicator: TA1537, Metabolic Activation: None, Method: Preincubation) “inactive; negative”. Moreover, the mutagenic call is, setting by setting: (Test System: Ames Salmonella typhimurium, Strain/Indicator: TA1537, Metabolic Activation: Rat, Liver, S-9, Aroclor, Method: Plate incorporation) “inactive; negative”; (Test System: Ames Salmonella typhimurium, Strain/Indicator: TA1537, Metabolic Activation: Rat, Liver, S-9, Aroclor, Method: Preincubation) “inactive; negative”; (Test System: E. COLI, Strain/Indicator: WP2 UVRA, Metabolic Activation: NONE, Method: PREINCUBATION) “inactive; negative”; (Test System: E. coli, Strain/Indicator: WP2uvrA (pKM101), Metabolic Activation: None, Method: Plate incorporation) “inactive; negative”; (Test System: E. coli, Strain/Indicator: WP2uvrA (pKM101), Metabolic Activation: None, Method: Preincubation) “inactive; negative”; (Test System: E. coli, Strain/Indicator: WP2uvrA (pKM101), Metabolic Activation: Rat, Liver, S-9, Aroclor, Method: Plate incorporation) “inactive; negative”. Besides, the mutagenic call was “inactive; negative” (Test System: E. coli, Strain/Indicator: WP2uvrA (pKM101), Metabolic Activation: Rat, Liver, S-9, Aroclor, Method: Preincubation); “inactive; negative” (Test System: In vitro micronucleus, Strain/Indicator: Human lymphocytes, Metabolic Activation: None); “inactive; negative” (Test System: In vivo micronucleus, Species: Mouse, Strain/Sex: ICR/Male, Route: Oral (gavage)); “inactive; negative” (Test System: Mouse lymphoma L5178Y/TK+/- cells, Strain/Indicator: WP2 uvrA (pKM101), Metabolic Activation: Rat, Liver, S-9, Aroclor 1254, Method: Suspension/plate); “active; positive” (Test System: UDS Rat hepatocytes, Strain/Indicator: Thymidine incorporation, Method: In vivo - in vitro, measurement by autoradiography).
For the compound `NN=C(N)N`, the mutagenic call is, setting by setting: under setting [1], “inactive; negative”; (Test System: AMES SALMONELLA TYPHIMURIUM, Strain/Indicator: TA98, Metabolic Activation: RAT LIVER S-9, PHENOBARBITAL AND BETA-NAPHTHOFLAVONE, Method: PREINCUBATION) “inactive; negative”; under setting [2], “inactive; negative”; (Test System: AMES SALMONELLA TYPHIMURIUM, Strain/Indicator: TA100, Metabolic Activation: RAT LIVER S-9, PHENOBARBITAL AND BETA-NAPHTHOFLAVONE, Method: PREINCUBATION) “inactive; negative”; under setting [3], “inactive; negative”; (Test System: AMES SALMONELLA TYPHIMURIUM, Strain/Indicator: TA1535, Metabolic Activation: RAT LIVER S-9, PHENOBARBITAL AND BETA-NAPHTHOFLAVONE, Method: PREINCUBATION) “inactive; negative”. For the same compound, the mutagenic call was “inactive; negative” under setting [4]; “inactive; negative” (Test System: AMES SALMONELLA TYPHIMURIUM, Strain/Indicator: TA1537, Metabolic Activation: RAT LIVER S-9, PHENOBARBITAL AND BETA-NAPHTHOFLAVONE, Method: PREINCUBATION); “inactive; negative” (Test System: E.COLI, Strain/Indicator: WP2UVRA/PKM101, Metabolic Activation: NONE, Method: PREINCUBATION); “inactive; negative” (Test System: E.COLI, Strain/Indicator: WP2UVRA/PKM101, Metabolic Activation: RAT LIVER S-9, PHENOBARBITAL AND BETA-NAPHTHOFLAVONE, Method: PREINCUBATION).
